Converted amounts (≈) assume the structure as drawn.
Test system: DLBCL SUDHL4 cells
Assay: CellTiter-Glo 3D cell viability (intracellular ATP) after 48 h drug treatment, 2D suspension vs 3D microcompartments
Format: cell-based
Conditions: Homo sapiens, SU-DHL-4, 48 h
Procedure: FIG. 11: Comparison of the cytotoxic effects of doxorubicin and of etoposide on DLBCL SUDHL4 cells grown in 2D (suspension) or in 3D ± ECM ± Resto. Cells or spheroids at D7 post-encapsulation are treated for 48 h with drugs. At the end of the treatment, cell viability is measured using the CellTiter-Glo® 3D Cell Viability Assay Kit (Promega).
As shown above, drug diffusion is altered in the 3D structures according to the invention. The purpose of the present experiment is to verify whether this alteration is correlated with chemoresistance. For this purpose, the efficacy of two conventional chemotherapies (doxorubicin and etoposide) was tested in parallel on cells grown in suspension (2D) and on cell clusters from cellular microcompartments according to the invention, containing lymphomatous cells alone or in the presence of ECM, with or without Resto stromal cells, treated with increasing concentrations of these chemotherapy molecules.
After 48 h of incubation, cell survival was assessed by measuring intracellular ATP using the CellTiter-Glo® 3D Cell Viability Assay Kit (Promega).

[1] = 3D (lymphomatous cells alone), SUDHL4, D7 post-encapsulation, 48 h
[2] = 3D + ECM + Resto, SUDHL4, D7 post-encapsulation, 48 h
[3] = 3D + ECM, SUDHL4, D7 post-encapsulation, 48 h

SMILES	IC50 (2D (suspension), SUDHL4, 48 h) [µg/mL]	IC50 [1] [µg/mL]	IC50 [2] [µg/mL]	IC50 [3] [µg/mL]
COc1cccc2c1C(=O)c1c(O)c3c(c(O)c1C2=O)C[C@@](O)(C(=O)CO)C[C@@H]3O[C@H]1C[C@H](N)[C@H](O)[C@H](C)O1 [Doxorubicin, doxorubicin]	0.09 (≈ 0.166 µM)	0.4 (≈ 0.736 µM)	0.4	0.4
COc1cc([C@@H]2c3cc4c(cc3[C@@H](O[C@@H]3O[C@@H]5CO[C@@H](C)O[C@H]5[C@H](O)[C@H]3O)[C@H]3COC(=O)[C@H]23)OCO4)cc(OC)c1O [Etoposide, etoposide]	3.2 (≈ 5.44 µM)	4.4 (≈ 7.48 µM)	7	9.3

Source: US20200370022A1, “MALIGNANT HEMATOPOIETIC CELL MICROCOMPARTMENT AND METHOD FOR PREPARING SUCH A MICROCOMPARTMENT” (UNIVERSITE DE BORDEAUX, priority 2017, published 2020)
